Source: US10405547B2, “Substituted cyclic amides as herbicides” (FMC Corporation, priority 2015, dated 2019)

Legend:
Assay type in all cases: in vivo
[1] = tested on: foxtail, giant (Setaria faberii); assay: Test A preemergence, giant foxtail; conditions: 0 to 100 scale (0 no effect, 100 complete control)
Procedure, shortened: (§1)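 Greenhouse pot test in loam/sand soil. Pre: directed soil spray after seeding. Post: 1–2-leaf plants, 2–10 cm. Formulation: non-phytotoxic solvent + surfactant. Visual rating vs untreated controls at ~10 d, 0 (no effect) to 100 (complete control).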

corn (Zea mays) = assay: Test A postemergence, corn; conditions: visual injury, 0 to 100 scale (0 no effect, 100 complete control), approximately 10 days
Procedure, shortened: as §1

[2] = tested on: barnyardgrass (Echinochloa crus-galli); assay: Test A preemergence, barnyardgrass; conditions: 0 to 100 scale (0 no effect, 100 complete control)
Procedure, shortened: as §1

[3] = tested on: blackgrass (Alopecurus myosuroides); assay: Test A postemergence, blackgrass; conditions: visual injury, 0 to 100 scale (0 no effect, 100 complete control), approximately 10 days
Procedure, shortened: as §1

[4] = tested on: ragweed (common ragweed, Ambrosia elatior); assay: Test A preemergence, ragweed; conditions: 0 to 100 scale (0 no effect, 100 complete control)
Procedure, shortened: as §1

[5] = tested on: foxtail, giant (Setaria faberii); assay: Test A postemergence, giant foxtail; conditions: visual injury, 0 to 100 scale (0 no effect, 100 complete control), approximately 10 days
Procedure, shortened: as §1

[6] = tested on: pigweed (Amaranthus retroflexus); assay: Test A preemergence, pigweed; conditions: 0 to 100 scale (0 no effect, 100 complete control)
Procedure, shortened: as §1

[7] = tested on: ryegrass, Italian (Lolium multiflorum); assay: Test A preemergence, Italian ryegrass; conditions: 0 to 100 scale (0 no effect, 100 complete control)
Procedure, shortened: as §1

[8] = tested on: pigweed (Amaranthus retroflexus); assay: Test A postemergence, pigweed; conditions: visual injury, 0 to 100 scale (0 no effect, 100 complete control), approximately 10 days
Procedure, shortened: as §1

[9] = tested on: barnyardgrass (Echinochloa crus-galli); assay: Test B flooded paddy test, barnyardgrass; conditions: 250 g ai/ha, applied to paddy water, visual rating after 13 to 15 days, scale 0 (no effect) to 100 (complete control)
Procedure, shortened: (§2)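 In-water treatment: compound dosed into 3 cm flood over soil, water level unchanged throughout. Controls run alongside; visual assessment at day 13–15.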

[10] = tested on: galium (catchweed bedstraw, Galium aparine); assay: Test A postemergence, galium; conditions: visual injury, 0 to 100 scale (0 no effect, 100 complete control), approximately 10 days
Procedure, shortened: as §1

[11] = tested on: sedge, umbrella (small-flower umbrella sedge, Cyperus difformis); assay: Test B flooded paddy test, umbrella sedge; conditions: 250 g ai/ha, applied to paddy water, visual rating after 13 to 15 days, scale 0 (no effect) to 100 (complete control)
Procedure, shortened: as §2

[12] = tested on: wheat (Triticum aestivum); assay: Test A postemergence, wheat; conditions: visual injury, 0 to 100 scale (0 no effect, 100 complete control), approximately 10 days
Procedure, shortened: as §1

[13] = tested on: barnyardgrass (Echinochloa crus-galli); assay: Test A postemergence, barnyardgrass; conditions: visual injury, 0 to 100 scale (0 no effect, 100 complete control), approximately 10 days
Procedure, shortened: as §1

[14] = tested on: ryegrass, Italian (Lolium multiflorum); assay: Test A postemergence, Italian ryegrass; conditions: visual injury, 0 to 100 scale (0 no effect, 100 complete control), approximately 10 days
Procedure, shortened: as §1

rice (Oryza sativa) = assay: Test B flooded paddy test, rice; conditions: 250 g ai/ha, applied to paddy water, visual rating after 13 to 15 days, scale 0 (no effect) to 100 (complete control)
Procedure, shortened: as §2

kochia (Kochia scoparia) [15] = assay: Test A postemergence, kochia; conditions: visual injury, 0 to 100 scale (0 no effect, 100 complete control), approximately 10 days
Procedure, shortened: as §1

[16] = tested on: ducksalad (Heteranthera limosa); assay: Test B flooded paddy test, ducksalad; conditions: 250 g ai/ha, applied to paddy water, visual rating after 13 to 15 days, scale 0 (no effect) to 100 (complete control)
Procedure, shortened: as §2

[17] = tested on: ragweed (common ragweed, Ambrosia elatior); assay: Test A postemergence, ragweed; conditions: visual injury, 0 to 100 scale (0 no effect, 100 complete control), approximately 10 days
Procedure, shortened: as §1

kochia (Kochia scoparia) [18] = assay: Test A preemergence, kochia; conditions: 0 to 100 scale (0 no effect, 100 complete control)
Procedure, shortened: as §1

Structure (SMILES) | Plant response rating, Foxtail, Giant ([1]; 125 g ai/ha) | Plant response rating, Foxtail, Giant ([1]; 500 g ai/ha) | Plant response rating, Corn (corn (Zea mays); 125 g ai/ha) | Plant response rating, Corn (corn (Zea mays); 500 g ai/ha) | Plant response rating, Barnyardgrass ([2]; 125 g ai/ha) | Plant response rating, Barnyardgrass ([2]; 500 g ai/ha) | Plant response rating, Blackgrass ([3]; 125 g ai/ha) | Plant response rating, Blackgrass ([3]; 500 g ai/ha) | Plant response rating, Ragweed ([4]; 125 g ai/ha) | Plant response rating, Ragweed ([4]; 500 g ai/ha) | Plant response rating, Foxtail, Giant ([5]; 125 g ai/ha) | Plant response rating, Foxtail, Giant ([5]; 500 g ai/ha) | Plant response rating, Pigweed ([6]; 125 g ai/ha) | Plant response rating, Pigweed ([6]; 500 g ai/ha) | Plant response rating, Ryegrass, Italian ([7]; 125 g ai/ha) | Plant response rating, Ryegrass, Italian ([7]; 500 g ai/ha) | Plant response rating, Pigweed ([8]; 125 g ai/ha) | Plant response rating, Pigweed ([8]; 500 g ai/ha) | Plant response rating, Barnyardgrass (Flood) [9] | Plant response rating, Galium ([10]; 125 g ai/ha) | also measured
O=C1NCC(c2cccc(OCc3ccco3)c2)C1C(=O)Nc1ccccc1Cl (stereo not drawn) [Compound 1] | 0 | 0 | 0 | 0 | 0 | 0 | 0 | 0 | 0 | 0 | 0 | 0 | 0 | 0 | 0 | 0 | 0 | 0 | 0 | 0 | Plant response rating, Galium ([10]; 500 g ai/ha): 0; Plant response rating, Sedge, Umbrella (Flood) [11]: 30; Plant response rating, Wheat ([12]; 125 g ai/ha): 0; Plant response rating, Wheat ([12]; 500 g ai/ha): 0; Plant response rating, Barnyardgrass ([13]; 125 g ai/ha): 0; Plant response rating, Barnyardgrass ([13]; 500 g ai/ha): 0; Plant response rating, Ryegrass, Italian ([14]; 125 g ai/ha): 0; Plant response rating, Ryegrass, Italian ([14]; 500 g ai/ha): 0; Plant response rating, Rice (Flood) (rice (Oryza sativa)): 0; Plant response rating, Kochia (kochia (Kochia scoparia) [15]; 125 g ai/ha): 0; Plant response rating, Kochia (kochia (Kochia scoparia) [15]; 500 g ai/ha): 0; Plant response rating, Ducksalad (Flood) [16]: 65; Plant response rating, Ragweed ([17]; 125 g ai/ha): 0; Plant response rating, Ragweed ([17]; 500 g ai/ha): 30; Plant response rating, Kochia (kochia (Kochia scoparia) [18]; 125 g ai/ha): 0; Plant response rating, Kochia (kochia (Kochia scoparia) [18]; 500 g ai/ha): 0
O=C1NCC(c2cccc(OCc3ccco3)c2)C1C(=O)Nc1ccccc1C(F)(F)F (stereo not drawn) [Compound 2] | 0 | 20 | 0 | 0 | 0 | 30 | 0 | 0 | 0 | 0 | 0 | 10 | 0 | 0 | 0 | 0 | 0 | 0 | 0 | 0 | Plant response rating, Galium ([10]; 500 g ai/ha): 0; Plant response rating, Sedge, Umbrella (Flood) [11]: 0; Plant response rating, Wheat ([12]; 125 g ai/ha): 0; Plant response rating, Wheat ([12]; 500 g ai/ha): 0; Plant response rating, Barnyardgrass ([13]; 125 g ai/ha): 0; Plant response rating, Barnyardgrass ([13]; 500 g ai/ha): 0; Plant response rating, Ryegrass, Italian ([14]; 125 g ai/ha): 0; Plant response rating, Ryegrass, Italian ([14]; 500 g ai/ha): 10; Plant response rating, Rice (Flood) (rice (Oryza sativa)): 0; Plant response rating, Kochia (kochia (Kochia scoparia) [15]; 125 g ai/ha): 0; Plant response rating, Kochia (kochia (Kochia scoparia) [15]; 500 g ai/ha): 0; Plant response rating, Ducksalad (Flood) [16]: 0; Plant response rating, Ragweed ([17]; 125 g ai/ha): 0; Plant response rating, Ragweed ([17]; 500 g ai/ha): 0; Plant response rating, Kochia (kochia (Kochia scoparia) [18]; 125 g ai/ha): 0; Plant response rating, Kochia (kochia (Kochia scoparia) [18]; 500 g ai/ha): 0
O=C1NCC(c2cccc(OCC3CC3)c2)C1C(=O)Nc1ccccc1Cl (stereo not drawn) [Compound 4] | 70 | 90 | 0 | 0 | 60 | 90 | 0 | 40 | 0 | 0 | 40 | 80 | 0 | 20 | 0 | 20 | 0 | 30 | 0 | 0 | Plant response rating, Galium ([10]; 500 g ai/ha): 0; Plant response rating, Sedge, Umbrella (Flood) [11]: 0; Plant response rating, Wheat ([12]; 125 g ai/ha): 0; Plant response rating, Wheat ([12]; 500 g ai/ha): 0; Plant response rating, Barnyardgrass ([13]; 125 g ai/ha): 40; Plant response rating, Barnyardgrass ([13]; 500 g ai/ha): 80; Plant response rating, Ryegrass, Italian ([14]; 125 g ai/ha): 0; Plant response rating, Ryegrass, Italian ([14]; 500 g ai/ha): 40; Plant response rating, Rice (Flood) (rice (Oryza sativa)): 0; Plant response rating, Kochia (kochia (Kochia scoparia) [15]; 125 g ai/ha): 0; Plant response rating, Kochia (kochia (Kochia scoparia) [15]; 500 g ai/ha): 0; Plant response rating, Ducksalad (Flood) [16]: 0; Plant response rating, Ragweed ([17]; 125 g ai/ha): 0; Plant response rating, Ragweed ([17]; 500 g ai/ha): 40; Plant response rating, Kochia (kochia (Kochia scoparia) [18]; 125 g ai/ha): 0; Plant response rating, Kochia (kochia (Kochia scoparia) [18]; 500 g ai/ha): 30
O=C1NCC(c2cccc(OCC3OCCO3)c2)C1C(=O)Nc1ccccc1C(F)(F)F (stereo not drawn) [Compound 5] | 30 | 90 | 0 | 0 | 0 | 50 | 0 | 0 | 0 | 0 | 20 | 50 | 0 | 30 | 0 | 0 | 0 | 0 | 0 | 0 | Plant response rating, Galium ([10]; 500 g ai/ha): 0; Plant response rating, Sedge, Umbrella (Flood) [11]: 0; Plant response rating, Wheat ([12]; 125 g ai/ha): 0; Plant response rating, Wheat ([12]; 500 g ai/ha): 0; Plant response rating, Barnyardgrass ([13]; 125 g ai/ha): 0; Plant response rating, Barnyardgrass ([13]; 500 g ai/ha): 20; Plant response rating, Ryegrass, Italian ([14]; 125 g ai/ha): 20; Plant response rating, Ryegrass, Italian ([14]; 500 g ai/ha): 20; Plant response rating, Rice (Flood) (rice (Oryza sativa)): 0; Plant response rating, Kochia (kochia (Kochia scoparia) [15]; 125 g ai/ha): 0; Plant response rating, Kochia (kochia (Kochia scoparia) [15]; 500 g ai/ha): 0; Plant response rating, Ducksalad (Flood) [16]: 65; Plant response rating, Ragweed ([17]; 125 g ai/ha): 0; Plant response rating, Ragweed ([17]; 500 g ai/ha): 0; Plant response rating, Kochia (kochia (Kochia scoparia) [18]; 125 g ai/ha): 0; Plant response rating, Kochia (kochia (Kochia scoparia) [18]; 500 g ai/ha): 0
O=C1NCC(c2cccc(OCC3OCCO3)c2)C1C(=O)Nc1ccccc1Cl (stereo not drawn) [Compound 6] | 70 | 90 | 0 | 20 | 20 | 80 | 0 | 20 | 0 | 20 | 0 | 70 | 60 | 50 | 0 | 0 | 0 | 0 | 0 | 0 | Plant response rating, Galium ([10]; 500 g ai/ha): 0; Plant response rating, Sedge, Umbrella (Flood) [11]: 0; Plant response rating, Wheat ([12]; 125 g ai/ha): 0; Plant response rating, Wheat ([12]; 500 g ai/ha): 20; Plant response rating, Barnyardgrass ([13]; 125 g ai/ha): 0; Plant response rating, Barnyardgrass ([13]; 500 g ai/ha): 70; Plant response rating, Ryegrass, Italian ([14]; 125 g ai/ha): 0; Plant response rating, Ryegrass, Italian ([14]; 500 g ai/ha): 0; Plant response rating, Rice (Flood) (rice (Oryza sativa)): 0; Plant response rating, Kochia (kochia (Kochia scoparia) [15]; 125 g ai/ha): 0; Plant response rating, Kochia (kochia (Kochia scoparia) [15]; 500 g ai/ha): 0; Plant response rating, Ducksalad (Flood) [16]: 0; Plant response rating, Ragweed ([17]; 125 g ai/ha): 0; Plant response rating, Ragweed ([17]; 500 g ai/ha): 0; Plant response rating, Kochia (kochia (Kochia scoparia) [18]; 125 g ai/ha): 0; Plant response rating, Kochia (kochia (Kochia scoparia) [18]; 500 g ai/ha): 0
